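Cultured in 96-well plates, cells were exposed to test compound for 48 hours across five concentrations. Abbreviation: GI50, concentration required for 50% inhibition of growth.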 Calls of active or inactive are those of the source. Cut-off read from the data, not from the text of the source: active = GI50 up to about 1.1 µM and inactive = higher.
Tests used:
Assay in all cases: inhibition of tumour cell growth, NCI panel, 48 h
[1] = system: ACHN
[2] = system: HL-60
[3] = system: SNB-19
[4] = system: SF-295
[5] = system: 786-0
[6] = system: CCRF-CEM
[7] = system: SN12C
[8] = system: OVCAR-3
[9] = system: A549
[10] = system: U-251
[11] = system: OVCAR-4
[12] = system: IGROV-1
[13] = system: SF-268
[14] = system: SW-620
[15] = system: HCT-116
[16] = system: SK-OV-3

Measured: GI50

COC1=C(C)C(=O)c2c(cc3c(c2O)C(C)(CCC=C(C)C)C(C)O3)C1=O (centres undefined)
inactive: [1] > 100 µM | [2] > 100 µM | [3] 19.2 µM | [4] 20.3 µM | [5] > 100 µM | [6] > 100 µM | [7] 33.5 µM | [8] > 100 µM | [9] 20 µM | [10] > 44.6 µM | [11] > 100 µM | [12] > 100 µM | [13] > 100 µM | [14] > 100 µM | [15] > 100 µM | [16] > 100 µM

N=C(c1ccccc1)N1CCCCC1
inactive: [2] > 100 µM | [3] > 100 µM | [4] > 100 µM | [5] > 100 µM | [7] > 100 µM | [9] > 100 µM | [10] > 100 µM | [11] > 100 µM | [13] > 100 µM | [14] > 100 µM | [15] > 100 µM

O=C1c2c(c3c4ccccc4[nH]c3c3[nH]c4ccccc4c23)C(=O)N1Cc1ccccc1
inactive: [1] 2.87 µM | [3] 2.8 µM | [4] 3.9 µM | [5] 3.13 µM | [6] 2.96 µM | [7] 2.1 µM | [8] 2.81 µM | [9] 3.48 µM | [10] 2.33 µM | [11] 3.06 µM | [12] 4.09 µM | [13] 3.01 µM | [14] 3.7 µM | [15] 2.74 µM | [16] 2.96 µM

Cn1ncnc1CCc1ccccc1
inactive: [1] > 100 µM | [2] > 100 µM | [4] > 100 µM | [5] > 100 µM | [6] > 100 µM | [7] > 100 µM | [8] > 100 µM | [9] > 100 µM | [10] > 100 µM | [11] > 100 µM | [12] > 100 µM | [13] > 100 µM | [14] > 100 µM | [15] > 100 µM | [16] > 100 µM

C[C@@H]1C[C@]2(C[C@@H](C)C3[C@@H](CC4(C)[C@@H]5CCC6C(C)(C)OC(=O)C=C[C@]67C[C@@]5(CC[C@]34C)OO7)O2)OC1=O (some centres undefined)
inactive: [1] 92.5 µM | [2] 46.2 µM | [3] 49.4 µM | [4] 36 µM | [5] > 100 µM | [7] > 100 µM | [8] 24.1 µM | [9] > 100 µM | [10] 73.3 µM | [11] 24.8 µM | [12] 56.2 µM | [14] 84.3 µM | [15] 61.5 µM | [16] 43.6 µM

CC(C)(C)c1ccccc1NS(=O)(=O)c1ccccc1
inactive: [1] > 100 µM | [2] 36.9 µM | [4] 86.1 µM | [5] > 100 µM | [6] 62.1 µM | [7] 62.4 µM | [8] 71.4 µM | [9] 59.8 µM | [10] > 100 µM | [11] 62.4 µM | [12] > 100 µM | [14] > 100 µM | [15] 48 µM | [16] > 100 µM

CN(C)c1ccc(/C=C(\C#N)C(=O)c2ccccc2)cc1Br
inactive: [1] > 100 µM | [2] 25.7 µM | [3] > 100 µM | [4] > 100 µM | [5] > 100 µM | [6] 35.6 µM | [7] > 100 µM | [8] > 100 µM | [9] > 100 µM | [10] > 100 µM | [11] > 100 µM | [13] > 100 µM | [14] 66.1 µM | [15] > 100 µM | [16] > 100 µM

COC(=O)C(=O)C(C(=O)C=C(C)C)C(=O)C(=O)Nc1ccc(Cl)cc1C (centres undefined)
inactive: [1] > 100 µM | [2] > 100 µM | [3] > 100 µM | [4] > 100 µM | [5] > 100 µM | [6] 87.5 µM | [7] > 100 µM | [8] > 100 µM | [9] > 100 µM | [10] > 100 µM | [11] > 100 µM | [12] > 100 µM | [13] > 100 µM | [15] > 100 µM | [16] > 100 µM

N#CCCN(CCC#N)c1ccc(/C=C2\N=C(COc3ccc(Cl)cc3Cl)OC2=O)cc1
inactive: [2] > 100 µM | [3] > 100 µM | [4] > 100 µM | [5] > 100 µM | [6] > 100 µM | [7] > 100 µM | [8] > 100 µM | [9] > 100 µM | [10] > 100 µM | [11] > 100 µM | [12] > 100 µM | [13] > 100 µM | [14] > 100 µM | [15] > 100 µM | [16] > 100 µM

N/N=C1\c2ccccc2C2/C(=N\N)c3ccccc3C12 (centres undefined)
inactive: [1] > 100 µM | [2] > 100 µM | [3] > 100 µM | [4] > 100 µM | [5] > 100 µM | [6] > 100 µM | [7] > 100 µM | [8] > 100 µM | [9] > 100 µM | [10] > 100 µM | [11] > 100 µM | [12] > 100 µM | [13] > 100 µM | [14] > 100 µM | [16] > 100 µM

COC(=O)CC[C@]12C[C@]13CC[C@]1(C)C4C(C)C[C@]5(CC(C)C(=O)O5)OC4CC1(C)C3CCC2C(C)(C)O (some centres undefined)
inactive: [1] 88.3 µM | [2] 23.3 µM | [3] 51.2 µM | [4] > 100 µM | [5] > 100 µM | [7] 61.5 µM | [8] 76 µM | [9] > 100 µM | [10] 62.2 µM | [11] 95.9 µM | [12] 65.6 µM | [13] 81.1 µM | [14] 56 µM | [15] 85.7 µM | [16] > 100 µM

Oc1c2c(nc3cc4c(cc13)OCO4)-c1ccccc1CC2
inactive: [1] > 100 µM | [2] > 100 µM | [3] > 100 µM | [4] > 100 µM | [5] > 100 µM | [6] > 100 µM | [7] > 100 µM | [8] > 100 µM | [9] > 100 µM | [10] > 100 µM | [11] > 100 µM | [12] > 100 µM | [13] > 100 µM | [14] > 100 µM | [15] > 100 µM

COc1ccc(C2S/C(=C\c3cccc(O)c3)C(=O)N2NC(=O)Cc2ccccc2)cc1 (centres undefined)
inactive: [1] > 100 µM | [2] > 100 µM | [4] > 100 µM | [5] > 100 µM | [6] > 100 µM | [7] > 100 µM | [9] > 100 µM | [10] > 100 µM | [11] > 100 µM | [12] > 100 µM | [13] > 100 µM | [14] > 100 µM | [15] > 100 µM | [16] > 100 µM

Source: ChEMBL document CHEMBL1201862, “PubChem BioAssay data set” (2004)
